Source: patent US20210317141A1, “OXOPYRIDO[1,2-A]PYRIMIDINE COMPOUNDS FOR THE TREATMENT AND PROPHYLAXIS OF BACTERIAL INFECTION” (Hoffmann-La Roche Inc., priority 2018, published 2021)
Values after ≈ are worked out from the molar mass of the structure shown.

Experiments:
[1] = tested on: K. pneumoniae (ATCC10031); experiment: 50% growth inhibitory concentration (IC50) determination assay, K. pneumoniae; type: cell-based; conditions: Klebsiella pneumoniae, growth inhibition, Iso-Sensitest broth, OD 600 nm over 16 h, * = detection limit
Description: (§1) The in vitro antimicrobial activity of the compounds against E. coli (BW25113, obtained from Coli Genetic Stock Center, #7636) and K. pneumoniae (ATCC10031) was determined according to the following procedure:
(§2) The assay used a 10-points Iso-Sensitest broth medium to measure quantitatively the in vitro activity of the compounds against E. coli BW25113 and K. pneumoniae ATCC 10031.
(§3) Stock compounds in DMSO were serially two-fold diluted (range from 50 to 0.097 μM final concentration) in 384 wells microtiter plates and inoculated with 49 μL the bacterial suspension in Iso-Sensitest broth medium to have a final cell concentration of ˜5×10^5 CFU/mL in a final volume/well of 50 μL/well. Microtiter plates were incubated at 35±2° C.
(§4) Bacterial cell growth was determined with the measurement of optical density at k=600 nm each 20 minutes over a time course of 16 h.
(§5) Growth inhibition was calculated during the logarithmic growth of the bacterial cells with determination of the concentration inhibiting 50% (IC50) of the growth.

[2] = Cytotoxicity assay (HepG2, CellTiter-Blue); type: cell-based; conditions: human, HepG2 cells, 3 days treatment
Description: The cytotoxicity of compounds of present invention was assessed by HepG2 assay. HepG2 cells (ATCC HB-8065™) were seeded into 96-well plates (1.2×10^4 cells per well) and treated with compounds for 3 days, cell viability was measured at day 3 post compound treatment using the CellTiter-Blue® Cell Viability Assay (Promega, Cat. No. G8082). 20 μL of Cell titer blue buffer were added to each well of the cells, incubated for 3 hours at 37° C., and the fluorescence value was measured by a plate reader (Molecular Device SpectraMax M2). The CC50 value of each compound is plotted with GraphPad Prism using four parameter logistic equation.

E. coli (ATCC 25922) = experiment: Minimal Inhibitory Concentration (MIC) assay; type: cell-based; conditions: Escherichia coli, ATCC25922; CAMHB, 20 hours at 35° C.; read-out: MIC (μg/mL) E. coli ATCC 25922
Description: The in vitro potency of compounds to inhibit E. coli (ATCC 25922) growth was assessed by MIC (Minimal Inhibitory Concentration) assay. Samples were prepared from 10 mM DMSO stock solutions. After serial 2-fold dilution in DMSO in a master plate (Greiner, Cat No: 651201), 180 μL sterile distilled water was added to 20 μL each aliquot of the samples. Then […], diluted compounds were transferred into a new assay plate (Costar, 3599).
The growth medium […] Mueller Hinton Broth (CAMHB) was prepared by adding the 20 mg per liter CaCl2) and 20 mg per liter MgCl2 into the MHB medium (Jianglai Company, sterilized).
Vials of each of the test microorganisms were maintained frozen in the vapor phase of a liquid nitrogen freezer. Took out the bacteria E. coli ATCC 25922 (KWIKSTIK, 0335K) from liquid nitrogen freezer, thawed it in room temperature, and diluted the bacterial in the CAMHB medium to achieve a final inoculum of 5×10^5 CFU/mL. 90 μL CAMHB with bacteria was dispensed to the assay plate and pipetted 5 times.
Then the assay plates were incubated for 20 hours at 35° C. in ambient air. Following incubation, the MIC (μg/mL), the lowest concentration of drug that inhibits visible growth of the microorganism was read and recorded throw the microscope.

[3] = Lyophilisation solubility assay (LYSA); type: physicochemical; conditions: aqueous buffer, thermodynamic from solid; 0.05 M phosphate buffer, pH 6.5; * = detection limit
Description: The solubility of compounds of present invention was assessed by LYSA assay. Samples were prepared in duplicate from 10 mM DMSO stock solutions (20 μL) diluted in 30 μL pure DMSO. After evaporation of DMSO with a centrifugal vacuum evaporator, the residue was dissolved in 0.05 M phosphate buffer (150 μL, pH 6.5), stirred for one hour and shook for two hours. After one night, the solution was filtered using a microtiter filter plate. Then the filtrate and its 1/10 dilution were analyzed by HPLC-UV. In addition, a four-point calibration curve was prepared from the 10 mM stock solutions and used for the solubility determination of the compounds.

E. coli (BW25113) = experiment: 50% growth inhibitory concentration (IC50) determination assay, E. coli; type: cell-based; conditions: Escherichia coli, growth inhibition, Iso-Sensitest broth, OD 600 nm over 16 h, 35±2° C., read-out: IC50 (μM) E. coli K12 BW25113
Description: as §1, §2, §3, §4, §5

SMILES | IC50 [1] | MIC (E. coli (ATCC 25922)) | solubility thermodynamic [3] | IC50 (E. coli (BW25113)) | CC50 at 3 days [2]
CNc1cc(F)c(F)c2c1[nH]c1ncc(-c3cc(OC)c4ncc(C(=O)O)c(=O)n4c3)c(N(C)C)c12 [Example 1.03, 7-[4-(Dimethylamino)-5,6-difluoro-8-(methylamino)-9H-pyrido[2,3-b]indol-3-yl]-9-methoxy-4-oxo-pyrido[1,2-a]pyrimidine-3-carboxylic acid] | 0.114 µM | 0.682 µg/mL (≈ 1.38 µM) | 54 µg/mL (≈ 109 µM) | 2.71 µM | > 100 µM
CNc1cc(F)c(F)c2c1[nH]c1ncc(-c3ccc4ncc(C(=O)O)c(=O)n4c3)c(N(C)CC(F)(F)F)c12 [Example 1.09, 7-(5,6-Difluoro-4-(methyl(2,2,2-trifluoroethyl)amino)-8-(methylamino)-9H-pyrido[2,3-b]indol-3-yl)-4-oxo-4H-pyrido[1,2-a]pyrimidine-3-carboxylic acid] | 0.284 µM | 0.808 µg/mL (≈ 1.52 µM) |  | 2.57 µM | 33.5 µM
CCNc1cc(F)cc2c1[nH]c1ncc(-c3ccn4c(=O)c(C(=O)O)cnc4c3)c(-n3ccc(C(F)(F)F)n3)c12 [Example 1.31, 8-[8-(Ethylamino)-6-fluoro-4-[3-(trifluoromethyl)pyrazol-1-yl]-9H-pyrido[2,3-b]indol-3-yl]-4-oxo-pyrido[1,2-a]pyrimidine-3-carboxylic acid] |  |  |  |  | 30.8 µM
CNc1c(F)c(F)cc2c1[nH]c1ncc(-c3ccc4ncc(C(=O)O)c(=O)n4c3)c(N3CCC[C@H]3CN(C)C)c12 [Example 1.26, (S)-7-(4-(2-((Dimethylamino)methyl)pyrrolidin-1-yl)-6,7-difluoro-8-(methylamino)-9H-pyrido[2,3-b]indol-3-yl)-4-oxo-4H-pyrido[1,2-a]pyrimidine-3-carboxylic acid] |  |  | > 770 µg/mL |  | > 100 µM
CNc1cc(F)cc2c1[nH]c1ncc(-c3cc(C)c4ncc(C(=O)O)c(=O)n4c3)c(N(C)C)c12 [Example 1.05, 7-[4-(Dimethylamino)-6-fliioro-8-(methylamino)-9H-pyrido[2,3-b]indol-3-yl]-9-methyl-4-oxo-pyrido[1,2-a]pyrimidine-3-carboxylic acid] | 0.221 µM | 0.576 µg/mL (≈ 1.25 µM) |  | 2.06 µM | 34 µM
CNc1cc(F)c(F)c2c1[nH]c1ncc(-c3ccc4ncc(C(=O)O)c(=O)n4c3)c(N3CCC(F)(CN(C)C)C3)c12 (centres unmarked) [Example 1.18, 7-(4-(3-((Dimethylamino)methyl)-3-fluoropyrrolidin-1-yl)-5,6-difluoro-8-(methylamino)-9H-pyrido[2,3-b]indol-3-yl)-4-oxo-4H-pyrido[1,2-a]pyrimidine-3-carboxylic acid] |  | 0.398 µg/mL (≈ 0.704 µM) | 200 µg/mL (≈ 354 µM) |  | > 100 µM
CNc1cc(F)c(F)c2c1[nH]c1ncc(-c3cc(CN(C)C)c4ncc(C(=O)O)c(=O)n4c3)c(N3CCOCC3)c12 [Example 1.14, 7-(5,6-Difluoro-8-(methylamino)-4-morpholino-9H-pyrido[2,3-b]indol-3-yl)-9-((dimethylamino)methyl)-4-oxo-4H-pyrido[1,2-a]pyrimidine-3-carboxylic acid] | 0.197 µM |  | 315 µg/mL (≈ 559 µM) | 8.58 µM | > 100 µM
CNc1cc(F)cc2c1[nH]c1ncc(-c3ccc4ncc(C(=O)O)c(=O)n4c3)c(C#N)c12 [Example 1.34, 7-[4-Cyano-6-fluoro-8-(methylamino)-9H-pyrido[2,3-b]indol-3-yl]-4-oxo-pyrido[1,2-a]pyrimidine-3-carboxylic acid] |  | 0.364 µg/mL (≈ 0.85 µM) |  |  | > 100 µM
CNc1cc(F)c(F)c2c1[nH]c1ncc(-c3cc(CN(C)C)c4ncc(C(=O)O)c(=O)n4c3)c(N3CCCC3)c12 [Example 1.15, 7-(5,6-Difluoro-8-(methylamino)-4-(pyrrolidin-1-yl)-9H-pyrido[2,3-b]indol-3-yl)-9-((dimethylamino)methyl)-4-oxo-4H-pyrido[1,2-a]pyrimidine-3-carboxylic acid] | ≤ 0.098 µM | 0.152 µg/mL (≈ 0.278 µM) | 19 µg/mL (≈ 34.7 µM) | 0.663 µM | 
CNc1c(F)c(F)cc2c1[nH]c1ncc(-c3ccc4ncc(C(=O)O)c(=O)n4c3)c(N(C)C)c12 [Example 1.12, 7-(4-(Dimethylamino)-6,7-difluoro-8-(methylamino)-9H-pyrido[2,3-b]indol-3-yl)-4-oxo-4H-pyrido[1,2-a]pyrimidine-3-carboxylic] | ≤ 0.098 µM | 0.0212 µg/mL (≈ 0.0456 µM) |  | 0.442 µM | 29.9 µM
CNc1cc(F)c(F)c2c1[nH]c1ncc(-c3ccc4ncc(C(=O)O)c(=O)n4c3)c(N(C)CCOC)c12 [Example 1.24, 7-(5,6-Difluoro-4-((2-methoxyethyl)(methyl)amino)-8-(methylamino)-9H-pyrido[2,3-b]indol-3-yl)-4-oxo-4H-pyrido[1,2-a]pyrimidine-3-carboxylic acid] | 0.105 µM |  | 22 µg/mL (≈ 43.3 µM) | 2.23 µM | 71 µM
CNc1cc(F)cc2c1[nH]c1ncc(-c3ccc4ncc(C(=O)O)c(=O)n4c3)c(N3CCC(F)(F)C3)c12 [Example 2.05, 7-(4-(3,3-Difluoropyrrolidin-1-yl)-6-fluoro-8-(methylamino)-9H-pyrido[2,3-b]indol-3-yl)-4-oxo-4H-pyrido[1,2-a]pyrimidine-3-carboxylic acid] |  |  |  |  | 31.8 µM
CNc1cc(F)c(F)c2c1[nH]c1ncc(-c3ccc4ncc(C(=O)O)c(=O)n4c3)c(N(C)C)c12 [Example 1.01, 7-[4-(Dimethylamino)-5,6-difluoro-8-(methylamino)-9H-pyrido[2,3-b]indol-3-yl]-4-oxo-pyrido[1,2-a]pyrimidine-3-carboxylic Acid] |  | 0.0183 µg/mL (≈ 0.0394 µM) | 30 µg/mL (≈ 64.6 µM) | 0.906 µM | 45.9 µM

Now from value to compound, other results behind:

IC50 [1] | MIC (E. coli (ATCC 25922)) | solubility thermodynamic [3] | IC50 (E. coli (BW25113)) | SMILES | CC50 at 3 days [2]
≤ 0.098 µM | 0.127 µg/mL (≈ 0.293 µM) | < 1 µg/mL | 0.17 µM | CNc1cc(F)cc2c1[nH]c1nc(Oc3cnc(C)nc3)nc(N3C[C@H]4C[C@@H]3C[C@H]4C)c12 [GP-6, reference compound] | 5.6 µM
≤ 0.098 µM | 0.0996 µg/mL (≈ 0.176 µM) | 255 µg/mL (≈ 451 µM) | 0.738 µM | CNc1cc(F)c(F)c2c1[nH]c1ncc(-c3cc(CN(C)CCOC)c4ncc(C(=O)O)c(=O)n4c3)c(N(C)C)c12 [Example 2.02, 7-[4-(Dimethylamino)-5,6-difluoro-8-(methylamino)-9H-pyrido[2,3-b]indol-3-yl]-9-[[2-methoxyethyl(methyl)amino]methyl]-4-oxo-pyrido[1,2-a]pyrimidine-3-carboxylic acid] | 
≤ 0.098 µM | 0.194 µg/mL (≈ 0.354 µM) | 51 µg/mL (≈ 93.1 µM) | 0.748 µM | CNc1cc(F)c(F)c2c1[nH]c1ncc(-c3cc(CN4CCCC4)c4ncc(C(=O)O)c(=O)n4c3)c(N(C)C)c12 [Example 2.03, 7-[4-(Dimethylamino)-5,6-difluoro-8-(methylamino)-9H-pyrido[2,3-b]indol-3-yl]-4-oxo-9-(pyrrolidin-1-ylmethyl)pyrido[1,2-a]pyrimidine-3-carboxylic acid] | 
≤ 0.098 µM | 0.0223 µg/mL (≈ 0.0396 µM) | 36 µg/mL (≈ 63.9 µM) | 0.523 µM | CNc1cc(F)c(F)c2c1[nH]c1ncc(-c3cc(CN4CCOCC4)c4ncc(C(=O)O)c(=O)n4c3)c(N(C)C)c12 [Example 2.01, 7-[4-(Dimethylamino)-5,6-difluoro-8-(methylamino)-9H-pyrido[2,3-b]indol-3-yl]-9-(morpholinomethyl)-4-oxo-pyrido[1,2-a]pyrimidine-3-carboxylic Acid] | 
